Reference: the NIST ThermoML archive (doi:10.1016/j.jct.2006.07.022)

Test: xn = mol fraction of the nth substance listed
Conditions: 101 kPa, Liquid

CN(C)C=O [dimethylformamide] + c1ccccc1
Conditions	mass density [kg/m3]
293.15 K, x2 = 0	948.58
293.15 K, x2 = 0.0785	943.13
293.15 K, x2 = 0.1347	939.28
293.15 K, x2 = 0.2036	934.59
293.15 K, x2 = 0.2699	930.11
293.15 K, x2 = 0.3352	925.71
293.15 K, x2 = 0.4034	921.13
293.15 K, x2 = 0.4874	915.49
293.15 K, x2 = 0.5432	911.72
293.15 K, x2 = 0.6044	907.55
293.15 K, x2 = 0.6705	903
293.15 K, x2 = 0.7413	898.06
293.15 K, x2 = 0.8056	893.49
293.15 K, x2 = 0.871	888.73
293.15 K, x2 = 0.9214	884.99
293.15 K, x2 = 0.9785	880.66
303.15 K, x2 = 0	939.46
303.15 K, x2 = 0.0689	934.59
303.15 K, x2 = 0.1354	929.93
303.15 K, x2 = 0.2037	925.19
303.15 K, x2 = 0.2701	920.6
303.15 K, x2 = 0.3387	915.87
303.15 K, x2 = 0.407	911.17
303.15 K, x2 = 0.4735	906.6
303.15 K, x2 = 0.5403	901.98
303.15 K, x2 = 0.6054	897.43
303.15 K, x2 = 0.6791	892.23
303.15 K, x2 = 0.7441	887.56
303.15 K, x2 = 0.81	882.75
303.15 K, x2 = 0.8741	877.97
303.15 K, x2 = 0.9245	874.12
303.15 K, x2 = 0.9784	869.92
313.15 K, x2 = 0	930.12
313.15 K, x2 = 0.0655	925.37
313.15 K, x2 = 0.1357	920.35
313.15 K, x2 = 0.2019	915.66
313.15 K, x2 = 0.2684	910.98
313.15 K, x2 = 0.336	906.21
313.15 K, x2 = 0.4063	901.26
313.15 K, x2 = 0.4726	896.57
313.15 K, x2 = 0.5367	892.03
313.15 K, x2 = 0.6038	887.24
313.15 K, x2 = 0.6792	881.8
313.15 K, x2 = 0.738	877.51
313.15 K, x2 = 0.8119	872.03
313.15 K, x2 = 0.873	867.4
313.15 K, x2 = 0.9314	862.88
313.15 K, x2 = 0.98	859.02
323.15 K, x2 = 0	920.55
323.15 K, x2 = 0.0785	914.76
323.15 K, x2 = 0.1359	910.58
323.15 K, x2 = 0.2021	905.79
323.15 K, x2 = 0.2687	901.01
323.15 K, x2 = 0.3364	896.14
323.15 K, x2 = 0.4066	891.09
323.15 K, x2 = 0.4735	886.28
323.15 K, x2 = 0.5415	881.37
323.15 K, x2 = 0.6092	876.44
323.15 K, x2 = 0.6736	871.72
323.15 K, x2 = 0.7453	866.4
323.15 K, x2 = 0.8089	861.6
323.15 K, x2 = 0.8797	856.16
323.15 K, x2 = 0.9374	851.62
323.15 K, x2 = 0.9777	848.38
333.15 K, x2 = 0	910.75
333.15 K, x2 = 0.0695	905.54
333.15 K, x2 = 0.1354	900.67
333.15 K, x2 = 0.2026	895.73
333.15 K, x2 = 0.2701	890.79
333.15 K, x2 = 0.3321	886.27
333.15 K, x2 = 0.4042	881.01
333.15 K, x2 = 0.475	875.82
333.15 K, x2 = 0.5487	870.41
333.15 K, x2 = 0.6014	866.51
333.15 K, x2 = 0.6758	860.97
333.15 K, x2 = 0.7371	856.36
333.15 K, x2 = 0.8142	850.48
333.15 K, x2 = 0.8809	845.28
333.15 K, x2 = 0.9398	840.58
333.15 K, x2 = 0.9785	837.43
343.15 K, x2 = 0	900.73
343.15 K, x2 = 0.0577	896.35
343.15 K, x2 = 0.1155	892
343.15 K, x2 = 0.1728	887.74
343.15 K, x2 = 0.2388	882.84
343.15 K, x2 = 0.299	878.39
343.15 K, x2 = 0.3652	873.49
343.15 K, x2 = 0.4202	869.41
343.15 K, x2 = 0.504	863.2
343.15 K, x2 = 0.5606	858.98
343.15 K, x2 = 0.6275	853.95
343.15 K, x2 = 0.6963	848.75
343.15 K, x2 = 0.7585	844
343.15 K, x2 = 0.8187	839.33
343.15 K, x2 = 0.8814	834.39
343.15 K, x2 = 0.9584	828.16

CCc1ccccc1 [ethylbenzene] + CN(C)C=O
Conditions	mass density [kg/m3]
293.15 K, x1 = 0.0514	942.69
293.15 K, x1 = 0.1124	936.07
293.15 K, x1 = 0.1754	929.58
293.15 K, x1 = 0.2451	922.8
293.15 K, x1 = 0.3102	916.81
293.15 K, x1 = 0.3754	911.11
293.15 K, x1 = 0.4514	904.81
293.15 K, x1 = 0.5214	899.3
293.15 K, x1 = 0.5862	894.43
293.15 K, x1 = 0.6478	890
293.15 K, x1 = 0.7012	886.28
293.15 K, x1 = 0.7658	881.94
293.15 K, x1 = 0.8214	878.33
293.15 K, x1 = 0.8845	874.33
293.15 K, x1 = 0.9451	870.6
293.15 K, x1 = 1	867.28
303.15 K, x1 = 0.0562	933.08
303.15 K, x1 = 0.1141	926.82
303.15 K, x1 = 0.1865	919.45
303.15 K, x1 = 0.2451	913.8
303.15 K, x1 = 0.3065	908.15
303.15 K, x1 = 0.375	902.18
303.15 K, x1 = 0.4354	897.14
303.15 K, x1 = 0.4952	892.39
303.15 K, x1 = 0.5685	886.81
303.15 K, x1 = 0.6284	882.45
303.15 K, x1 = 0.7025	877.28
303.15 K, x1 = 0.7654	873.05
303.15 K, x1 = 0.8251	869.17
303.15 K, x1 = 0.8821	865.57
303.15 K, x1 = 0.9422	861.86
303.15 K, x1 = 1	858.36
313.15 K, x1 = 0.0684	922.45
313.15 K, x1 = 0.1151	917.46
313.15 K, x1 = 0.1855	910.34
313.15 K, x1 = 0.2525	903.93
313.15 K, x1 = 0.3101	898.69
313.15 K, x1 = 0.3852	892.2
313.15 K, x1 = 0.4421	887.51
313.15 K, x1 = 0.5012	882.85
313.15 K, x1 = 0.5688	877.74
313.15 K, x1 = 0.6211	873.93
313.15 K, x1 = 0.6855	869.42
313.15 K, x1 = 0.7451	865.39
313.15 K, x1 = 0.8021	861.65
313.15 K, x1 = 0.8654	857.62
313.15 K, x1 = 0.9325	853.47
313.15 K, x1 = 1	849.38
323.15 K, x1 = 0.0463	915.35
323.15 K, x1 = 0.1125	908.29
323.15 K, x1 = 0.1785	901.64
323.15 K, x1 = 0.2462	895.17
323.15 K, x1 = 0.312	889.22
323.15 K, x1 = 0.3745	883.85
323.15 K, x1 = 0.4352	878.85
323.15 K, x1 = 0.4952	874.12
323.15 K, x1 = 0.5552	869.58
323.15 K, x1 = 0.6125	865.41
323.15 K, x1 = 0.6784	860.79
323.15 K, x1 = 0.7451	856.29
323.15 K, x1 = 0.8021	852.57
323.15 K, x1 = 0.8666	848.48
323.15 K, x1 = 0.9451	843.65
323.15 K, x1 = 1	840.35
333.15 K, x1 = 0.0548	904.7
333.15 K, x1 = 0.1241	897.45
333.15 K, x1 = 0.1852	891.41
333.15 K, x1 = 0.2451	885.77
333.15 K, x1 = 0.3021	880.64
333.15 K, x1 = 0.3625	875.45
333.15 K, x1 = 0.4255	870.27
333.15 K, x1 = 0.4954	864.79
333.15 K, x1 = 0.5621	859.79
333.15 K, x1 = 0.6215	855.53
333.15 K, x1 = 0.6865	851.02
333.15 K, x1 = 0.7451	847.11
333.15 K, x1 = 0.8002	843.53
333.15 K, x1 = 0.8621	839.62
333.15 K, x1 = 0.9351	835.15
333.15 K, x1 = 1	831.25
343.15 K, x1 = 0.0689	893.27
343.15 K, x1 = 0.132	886.83
343.15 K, x1 = 0.1952	880.71
343.15 K, x1 = 0.2621	874.55
343.15 K, x1 = 0.3262	868.95
343.15 K, x1 = 0.3865	863.91
343.15 K, x1 = 0.4461	859.15
343.15 K, x1 = 0.5121	854.09
343.15 K, x1 = 0.5685	849.94
343.15 K, x1 = 0.6332	845.36
343.15 K, x1 = 0.7095	840.17
343.15 K, x1 = 0.7651	836.53
343.15 K, x1 = 0.8221	832.9
343.15 K, x1 = 0.8858	828.96
343.15 K, x1 = 0.9514	824.99
343.15 K, x1 = 1	822.11
353.15 K, x1 = 0.0458	885.55
353.15 K, x1 = 0.1112	878.86
353.15 K, x1 = 0.1784	872.35
353.15 K, x1 = 0.2351	867.13
353.15 K, x1 = 0.2965	861.72
353.15 K, x1 = 0.3589	856.48
353.15 K, x1 = 0.4152	851.94
353.15 K, x1 = 0.4784	847.06
353.15 K, x1 = 0.5321	843.06
353.15 K, x1 = 0.5962	838.48
353.15 K, x1 = 0.6748	833.09
353.15 K, x1 = 0.7451	828.47
353.15 K, x1 = 0.8032	824.77
353.15 K, x1 = 0.8745	820.37
353.15 K, x1 = 0.9548	815.56
353.15 K, x1 = 1	812.9
